# Measured values published in patent US12194039B2, “Methods of treating heart failure by administering omecamtiv mecarbil” (Cytokinetics, Inc., priority 2020, dated 2025).
# Entries after “also recorded” stand apart in the source; their conditions may differ. Like-named read-outs stand apart in the source and are kept apart here.
# Tests used:
# [1] = Pharmacokinetics in patients with hepatic impairment; format: in vivo, human; details: single dose 25 mg; mild (Child-Pugh A) or moderate (Child-Pugh B) hepatic impairment; result in words
# Procedure: The pharmacokinetics of a single dose of OM 25 mg were evaluated in patients with mild (Child-Pugh A) or moderate (Child-Pugh B) hepatic impairment. The pharmacokinetics (Cmax and AUC) of OM in patients with mild or moderate hepatic impairment were similar to those in patients with normal hepatic function.
# [2] = tested on: patients with HFrEF; details: result in words, cited from earlier work
# [3] = tested on: patients with heart failure and reduced ejection fraction; format: in vivo, human; details: for Change in KCCQ total symptom score at week 24, least squares mean (SE): scale 0 to 100; for All-cause death, hazard ratio (95% CI) / Cardiovascular death, hazard ratio (95% CI) / Heart failure event, hazard ratio (95% CI) / Heart failure hospitalization, hazard ratio (95% CI) / Primary composite outcome, hazard ratio (95% CI): vs placebo; for Primary composite outcome, hazard ratio (95% CI): overall trial population
# Source text: Patient eligibility requirements included age 18-85 years, New York Heart Association functional class (NYHA) II-IV symptoms, and ejection fraction of 35% or less. Participants were currently hospitalized for heart failure (in-patients) or had either an urgent visit to the emergency department or a hospitalization for heart failure (outpatients) within one year prior to randomization. […] Patients were required to receive standard drug and device therapy for heart failure consistent with regional clinical practice guidelines and doses optimized according to investigator judgment.
# Key exclusion criteria for patients included current hemodynamic or clinical instability requiring mechanical or intravenous medication, systolic blood pressure (SBP)<85 mmHg, estimated glomerular filtration rate (eGFR)<20 mL/min/1.73 m^2, recent acute coronary syndrome events or cardiovascular procedures (including planned), and other conditions that would adversely affect participation in the trial.
# All eligible participants were randomized 1:1 to oral administration of either placebo or omecamtiv mecarbil (pharmacokinetic-guided dosing: 25, 37.5 or 50 mg) twice daily. Pre-dose plasma concentrations of omecamtiv mecarbil were measured at weeks 2 and 6 with respective dose adjustments on weeks 4 and 8. The patient and investigator were blinded to the plasma concentrations and dispensed dose. The full schedule of assessments is provided in the protocol available at NEJM.org. Study drug was temporarily withheld if the participant experienced clinical signs or symptoms consistent with acute myocardial infarction or ischemia.
# The study was event-driven and was ended after approximately 1590 cardiovascular deaths. The overall type I error was 0.05 for 2-sided testing across primary and secondary endpoints with control for multiplicity testing. A single interim efficacy analysis was conducted after approximately two-thirds of the targeted number of cardiovascular deaths accrued with a one-sided alpha of 0.0005. Given the negligible impact of this interim on the final alpha, the full 0.05 was used in the final analysis consistent with the Haybittle-Peto approach. […] The mean differences in the KCCQ TSS change from baseline to Week 24 were estimated using a mixed model stratified by randomization setting (inpatient and outpatient) containing baseline TSS value, region, baseline eGFR, scheduled visit, treatment group, and the interaction of treatment group with scheduled visit. A joint omnibus F-test was used to test the treatment effect for the KCCQ TSS. An overall pooled estimate for the KCCQ TSS treatment difference to placebo were conducted using a likelihood based approach. The prespecified safety analyses included: serious adverse events; adverse events associated with discontinuation of study treatment; “adverse events of interest” i.e., ventricular arrhythmias requiring treatment and positively adjudicated major cardiac ischemic events (including myocardial infarction, hospitalization for unstable angina, coronary revascularization). […] All analyses were performed with the use of SAS software, version 9.4 (SAS Institute).
# The cumulative incidences of the primary outcome, heart failure events, death from cardiovascular causes and death from any cause were estimated with the use of the Kaplan-Meier method. Hazard ratios and 95% confidence intervals were estimated with the use of Cox regression models stratified by randomization location and region and treatment with omecamtiv mecarbil or placebo as explanatory variables. Analyses are based upon all participants who underwent randomization.
# [4] = target: P-gp (Homo sapiens, UniProt P08183); test: Transporter substrate assessment; format: in vitro ADME; details: result in words
# [5] = Effect of food on OM systemic exposure; format: in vivo, human; details: healthy subjects; result in words
# [6] = target: T1, BCRP (Homo sapiens, UniProt Q9UNQ0); test: In vitro inhibition by OM; format: in vitro ADME; details: result in words
# T1 sequence (Q9UNQ0 1-655): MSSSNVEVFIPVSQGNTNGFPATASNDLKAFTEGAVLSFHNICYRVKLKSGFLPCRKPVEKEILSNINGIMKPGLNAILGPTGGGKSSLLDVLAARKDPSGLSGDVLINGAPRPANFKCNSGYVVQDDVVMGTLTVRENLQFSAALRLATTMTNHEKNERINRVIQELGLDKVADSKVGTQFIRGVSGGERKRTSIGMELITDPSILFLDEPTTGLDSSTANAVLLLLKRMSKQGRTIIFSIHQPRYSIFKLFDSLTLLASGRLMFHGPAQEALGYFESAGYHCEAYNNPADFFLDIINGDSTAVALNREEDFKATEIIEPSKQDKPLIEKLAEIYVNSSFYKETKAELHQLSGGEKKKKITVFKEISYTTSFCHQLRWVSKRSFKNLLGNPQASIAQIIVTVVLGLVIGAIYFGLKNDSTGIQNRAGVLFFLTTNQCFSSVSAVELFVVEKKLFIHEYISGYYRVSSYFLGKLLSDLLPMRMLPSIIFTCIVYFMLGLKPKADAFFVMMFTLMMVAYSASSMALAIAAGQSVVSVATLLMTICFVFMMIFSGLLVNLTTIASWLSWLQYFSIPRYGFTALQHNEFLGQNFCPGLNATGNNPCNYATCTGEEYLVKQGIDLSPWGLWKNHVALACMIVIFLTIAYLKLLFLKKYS
# [7] = N = 4120, median follow-up 21.8 months
# [8] = component of primary composite, N = 4120
# P-gp, sequence (P08183 whole entry): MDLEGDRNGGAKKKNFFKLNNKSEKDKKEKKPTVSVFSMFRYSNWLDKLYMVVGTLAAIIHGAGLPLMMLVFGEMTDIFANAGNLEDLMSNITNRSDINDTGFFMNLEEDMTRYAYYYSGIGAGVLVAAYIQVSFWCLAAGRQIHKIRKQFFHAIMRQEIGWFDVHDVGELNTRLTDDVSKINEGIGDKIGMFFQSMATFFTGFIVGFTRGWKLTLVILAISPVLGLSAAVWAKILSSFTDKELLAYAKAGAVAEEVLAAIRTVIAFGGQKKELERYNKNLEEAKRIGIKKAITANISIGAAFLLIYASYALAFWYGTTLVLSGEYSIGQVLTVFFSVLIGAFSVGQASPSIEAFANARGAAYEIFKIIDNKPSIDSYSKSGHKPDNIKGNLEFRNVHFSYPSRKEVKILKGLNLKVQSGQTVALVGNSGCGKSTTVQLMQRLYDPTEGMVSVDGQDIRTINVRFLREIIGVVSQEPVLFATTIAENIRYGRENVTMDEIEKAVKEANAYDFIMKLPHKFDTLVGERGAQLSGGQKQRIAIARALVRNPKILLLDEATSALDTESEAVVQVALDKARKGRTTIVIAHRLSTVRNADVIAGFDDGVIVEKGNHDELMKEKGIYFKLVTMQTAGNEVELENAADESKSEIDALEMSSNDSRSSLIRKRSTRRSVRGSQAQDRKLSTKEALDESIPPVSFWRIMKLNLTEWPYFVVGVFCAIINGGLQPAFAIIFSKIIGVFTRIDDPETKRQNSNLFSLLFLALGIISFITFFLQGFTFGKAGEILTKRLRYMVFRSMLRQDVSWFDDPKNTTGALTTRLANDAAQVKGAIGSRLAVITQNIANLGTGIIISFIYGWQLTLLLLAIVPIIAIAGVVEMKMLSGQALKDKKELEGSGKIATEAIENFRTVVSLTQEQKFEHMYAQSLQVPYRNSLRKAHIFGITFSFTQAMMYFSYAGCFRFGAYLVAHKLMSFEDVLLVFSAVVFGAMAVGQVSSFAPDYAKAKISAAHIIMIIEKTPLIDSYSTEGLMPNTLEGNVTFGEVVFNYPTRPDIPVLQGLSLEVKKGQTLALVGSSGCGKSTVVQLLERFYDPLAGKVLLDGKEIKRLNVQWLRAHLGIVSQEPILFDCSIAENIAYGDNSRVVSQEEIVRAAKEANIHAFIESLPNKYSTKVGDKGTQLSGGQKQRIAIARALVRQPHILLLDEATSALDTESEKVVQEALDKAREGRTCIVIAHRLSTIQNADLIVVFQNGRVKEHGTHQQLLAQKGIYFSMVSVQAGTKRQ
smiles,measurement,setting,value
COC(=O)N1CCN(Cc2cccc(NC(=O)Nc3ccc(C)nc3)c2F)CC1 [omecamtiv mecarbil],Pharmacokinetics (Cmax and AUC) versus normal hepatic function,[1],similar
same,"Left ventricular systolic and diastolic volumes, natriuretic peptide concentrations and heart rate","[2]; oral therapy for 20 weeks, chronic HFrEF","reduced left ventricular systolic and diastolic volumes, plasma natriuretic peptide concentrations and heart rate; also recorded: decreased left ventricular systolic and diastolic volumes"
same,Cardiac performance,[2]; short-term intravenous and longer-term oral therapy,improved cardiac performance
same,"Change in KCCQ total symptom score at week 24, difference vs placebo (95% CI)",[3]; Inpatients,2.5
same,"Change in KCCQ total symptom score at week 24, difference vs placebo (95% CI)","[3]; Inpatients, listed as Omecamtiv Mecarbil","2.5 (0.54, 4.46)"
same,"Change in KCCQ total symptom score at week 24, least squares mean (SE)",[3]; Inpatients,23.7 (0.70)
same,"All-cause death, % of patients",[3]; N = 4120,25.9%
same,"All-cause death, Events/100 patient-yrs",[3]; N = 4120,14.4 Events/100 patient-yrs
same,"All-cause death, no. of patients",[3]; N = 4120,1067 no.
same,"Cardiovascular death, Events/100 patient-yrs",[3]; N = 4120,10.9 Events/100 patient-yrs
same,"Heart failure event (first), % of patients",[3]; N = 4120,28.6%
same,"Heart failure event (first), no. of patients",[3]; N = 4120,1177 no.
same,"Heart failure event, Events/100 patient-yrs",[3]; N = 4120,18.7 Events/100 patient-yrs
same,"Heart failure hospitalization (first), % of patients",[3]; N = 4120,27.7%
same,"Heart failure hospitalization (first), no. of patients",[3]; N = 4120,1142 no.
same,"Heart failure hospitalization, Events/100 patient-yrs",[3]; N = 4120,18.0 Events/100 patient-yrs
same,"Primary composite outcome, Events/100 patient-yrs",[3]; N = 4120,24.2 Events/100 patient-yrs
same,"Primary composite outcome (first heart failure event or cardiovascular death), % of patients",[3]; [7],37.0%
same,"Primary composite outcome (first heart failure event or cardiovascular death), no. of patients",[3]; [7],1523 no.
same,"Change in KCCQ total symptom score at week 24, difference vs placebo (95% CI)",[3]; Outpatients,−0.46
same,"Change in KCCQ total symptom score at week 24, difference vs placebo (95% CI)","[3]; Outpatients, listed as Omecamtiv Mecarbil","−0.5 (−1.40, 0.48)"
same,"Change in KCCQ total symptom score at week 24, least squares mean (SE)",[3]; Outpatients,5.8 (0.34)
same,"Cardiovascular death as first event, % of patients",[3]; [8],8.4%
same,"Cardiovascular death as first event, no. of patients",[3]; [8],346 no.
same,Risk reduction of primary composite outcome compared to placebo,"[3]; overall population, median 22 months",8%
same,"Cardiovascular death, % of patients","[3]; secondary outcome, N = 4120",19.6%
same,"Cardiovascular death, no. of patients","[3]; secondary outcome, N = 4120",808 no.
same,"All-cause death, hazard ratio (95% CI)",[3],1.00
same,"Cardiovascular death, hazard ratio (95% CI)",[3],1.01
same,"Heart failure event, hazard ratio (95% CI)",[3],0.93
same,"Heart failure hospitalization, hazard ratio (95% CI)",[3],0.95
same,"All-cause death, hazard ratio (95% CI)",[3]; listed as Omecamtiv Mecarbil,"1.00 (0.92, 1.09)"
same,"Cardiovascular death, hazard ratio (95% CI)",[3]; listed as Omecamtiv Mecarbil,"1.01 (0.92, 1.11)"
same,"Heart failure event, hazard ratio (95% CI)",[3]; listed as Omecamtiv Mecarbil,"0.93 (0.86, 1.00)"
same,"Heart failure hospitalization, hazard ratio (95% CI)",[3]; listed as Omecamtiv Mecarbil,"0.95 (0.87, 1.03)"
same,"Primary composite outcome, hazard ratio (95% CI)",[3],0.92
same,"Primary composite outcome, hazard ratio (95% CI)",[3]; listed as Omecamtiv Mecarbil,"0.92 (0.86, 0.99)"
same,Substrate of P-gp,[4],substrate
same,"Effect of a high-fat, high-calorie meal on systemic exposure",[5],no clinically significant effect
same,Inhibition of BCRP,[6],inhibitor
